One assay deals with P. aeruginosa. Nature of the assay: Checkerboard broth microdilution MIC and FICI. The conditions noted are these: for MIC (μg/mL) Alone / MIC: compound alone; for MIC: Pseudomonas aeruginosa. Type of assay: cell-based, Pseudomonas aeruginosa. The method, then:
(§1) The effects of combinations of microparticulate Bis-EDT and four Bis-EDT analogs prepared as described above, and other agents against representative strains of several Gram-negative pathogenic bacteria were tested. A modification of a common laboratory method was used to determine synergism (FICI≦0.5), enhancement (0.5<FICI≦1.0), antagonism (FICI>4.0) and indifference (1.0<FICI≦4.0) used fractional inhibitory concentrations (FICs) and FIC indices (FICI) (Eliopoulos G and R Moellering. 1991. Antimicrobial combinations. In Antibiotics in Laboratory Medicine, Third Edition, edited by V Lorian. Williams and Wilkins, Baltimore, Md., pp. 432-492; Odds, 2003 J. Antimicrob. Chemother. 52(1):1). The checkerboard technique was used to determine FIC indices and was employed in this study.
(§2) Stock solutions of all test articles were prepared at 40× the final target concentration in the appropriate solvent. […] The final drug concentrations in the FIC assay plates were set to bracket the MIC value of each agent for each test organism, unless the strain was totally resistant to the test agent. […] The test organisms were originally received from clinical sources, or from the American Type Culture Collection. Upon receipt, the isolates were streaked onto Tryptic Soy Agar II (TSA). Colonies were harvested from these plates and a cell suspension was prepared in an appropriate broth growth medium containing cryoprotectant. Aliquots were then frozen at −80° C. The frozen seeds of the organisms to be tested in a given assay were thawed, streaked for isolation onto TSA plates, and incubated at 35° C. All organisms were tested in Mueller Hinton II Broth (Becton Dickinson, Lot No. 9044411). The broth was prepared at 1.05× normal weight/volume to offset the 5% volume of the drugs in the final test plates.
(§3) Minimal Inhibitory Concentration (MIC) values were previously determined using the broth microdilution method for aerobic bacteria (Clinical and Laboratory Standards Institute (CLSI). Methods for Dilution Antimicrobial Susceptibility Tests for Bacteria That Grow Aerobically; Approved Standard—Eighth Edition. CLSI document M07-A8 [ISBN 1-56238-689-1]. Clinical and Laboratory Standards Institute, 940 West Valley Road, Suite 1400, Wayne, Pa. 19087-1898 USA, 2009.).
(§4) FIC values were determined using a broth microdilution method previously described (Sweeney et al., 2003 Antimicrob. Agents Chemother. 47(6):1902-1906). To prepare the test plates, automated liquid handlers (Multidrop 384, Labsystems, Helsinki, Finland; Biomek 2000 and Multimek 96, Beckman Coulter, Fullerton Calif.) were used to conduct serial dilutions and liquid transfers.
(§5) The appropriate wells of standard 96-well microdilution plates (Falcon 3918) were filled with 150 μL of the appropriate solvent in columns 2-12 using the Multidrop 384. Three hundred microliters of each secondary test drug was added to each well in Column 1 of the plates. These plates were used to prepare the drug “mother plates” which provided the serial drug dilutions for the drug combination plates. The Biomek 2000 was used to transfer 150 μL of each secondary drug solution (40×) from the wells in Column 1 of the mother plate and to make eleven 2-fold serial dilutions. Mother plates of Bis-EDT (and analogs) were serial diluted top to bottom by hand, using a multichannel pipette. Two mother plates, one for each secondary drug and one for Bis-EDT (or analogs), were combined to form a “checkerboard” pattern by transfer of equal volumes (using a multi-channel pipette) to the drug combination plate. Row H and Column 12 each contained serial dilutions of one of the agents alone for determination of the MIC.
(§6) The “daughter plates” were loaded with 180 μL of test medium using the Multidrop 384. Then, the Multimek 96 was used to transfer 10 μL of drug solution from each well of the drug combination mother plate to each corresponding well of the daughter plate in a single step.

Assay [1] concerns Gram-negative pathogenic bacteria. Nature of the assay: Checkerboard broth microdilution MIC and FICI. Type of assay: cell-based. The conditions noted are these: for MIC (μg/mL) Alone / MIC: compound alone; for FICI, Fractional Inhibitory Concentration Index: in combination with Cefotaxime; for MIC: Klebsiella pneumoniae. The procedure: as §1, §2, §3, §4, §5, §6
For orientation: Dilution methods test growth across graded concentrations, often in twofold steps.

A further assay relates to S. aureus. In words: Broth dilution MIC/MBC, BT-antibiotic combinations. Type of assay: cell-based, Staphylococcus aureus. The procedure:
Materials & Methods. Susceptibility studies were performed by broth dilution in 96-well tissue culture plates (Nalge Nunc International, Denmark) in accordance with NCCLS protocols (National Committee for Clinical Laboratory Standards. (1997). Methods for Dilution Antimicrobial Susceptibility Tests for Bacteria that Grow Aerobically: Approved Standard M7-A2 and Informational Supplement M100-S10. NCCLS, Wayne, Pa., USA).
Briefly, overnight bacterial cultures were used to prepare 0.5 McFarland standard suspensions, which were further diluted 1:50 (˜2×10^6 cfu/mL) in cation-adjusted Mueller-Hinton broth medium (BBL, Cockeysville, Md., USA). BTs (prepared as described above) and antibiotics were added at incremental concentrations, keeping the final volume constant at 0.2 mL. Cultures were incubated for 24 h at 37° C. and turbidity was assessed by absorption at 630 nm using an ELISA plate reader (Biotek Instruments, Winooski, Vt., USA) according to the manufacturer's recommendations. […] Viable bacterial counts (cfu/mL) were determined by standard plating on nutrient agar.
The checkerboard method was used to assess the activity of antimicrobial combinations. The fractional inhibitory concentration index (FICI) and the fractional bactericidal concentration index (FBCI) were calculated, according to Eliopoulos et al. (Eliopoulos and Moellering, (1996) Antimicrobial combinations. In Antibiotics in Laboratory Medicine (Lorian, V., Ed.), pp. 330-96, Williams and Wilkins, Baltimore, Md., USA). Synergy was defined as an FICI or FBCI index of […], no interaction at >0.5-4 and antagonism at >4 (Odds, F C (2003) Synergy, antagonism, and what the chequerboard puts between them. Journal of Antimicrobial Chemotherapy 52:1). Synergy was also defined conventionally as ≧4-fold decrease in antibiotic concentration.

Setting [2] is: P. aeruginosa 103, in combination with Cefepime.
Setting [3] is: P. aeruginosa 103, in combination with Cefotaxime.
Setting [4] is: P. aeruginosa 1381, in combination with Cefepime.
The mark [5] stands for this setting: P. aeruginosa 1384, in combination with Cefepime.
The mark [6] stands for this setting: P. aeruginosa 1474, in combination with Cefepime.
[7] abbreviates: P. aeruginosa 1479, in combination with Cefepime.
[8] abbreviates: P. aeruginosa 2566, in combination with Cefepime.
Where [9] appears, read: P. aeruginosa 2568, in combination with Cefepime.
[10] abbreviates: MRSA S2446-3, BE = 0.2 μg/ml BisEDT.
Setting [11] is: S. aureus ATCC 25923, BE = 0.2 μg/ml BisEDT.

Molecules are shown by their SMILES. Read-outs that look alike come from different tables or passages of the source.

Consider four compounds from patent US9408393B2, “Bismuth-thiols as antiseptics for agricultural, industrial and other uses” (Microbion Corporation, priority 2010, dated 2016).

Consider `C1C[S][Bi]([S]CC[S][Bi]2[S]CC[S]2)[S]1` [MB-1B-3, bismuth-1,2-ethane dithiol], for which the “MIC (μg/mL) Alone” value with P. aeruginosa (P. aeruginosa 103) was determined as 1 µg/mL; in the assay with P. aeruginosa (P. aeruginosa 1381), 1 µg/mL; in the assay on P. aeruginosa (P. aeruginosa 1384), 1 µg/mL; with P. aeruginosa (P. aeruginosa 1474), 1 µg/mL; with P. aeruginosa (P. aeruginosa 1479) it was 1 µg/mL; in the assay with P. aeruginosa (P. aeruginosa 2566) it was 0.5 µg/mL. For the same compound, the “MIC (μg/mL) Alone” value came out at 1 µg/mL in the assay on P. aeruginosa (P. aeruginosa 2568); 2 µg/mL in assay [1] (K. pneumoniae 1346); 1 µg/mL in assay [1] (K. pneumoniae 1355); 1 µg/mL in assay [1] (K. pneumoniae 2238); 2 µg/mL in assay [1] (K. pneumoniae 2541); 1 µg/mL in assay [1] (K. pneumoniae 2546). Moreover, the “MIC (μg/mL) Alone” value in assay [1] (K. pneumoniae 2549) stood at 1 µg/mL. Besides, the “FICI, Fractional Inhibitory Concentration Index” value with P. aeruginosa (setting [2]) came out at 0.71; in the assay on P. aeruginosa (setting [3]), 0.96; in the assay with P. aeruginosa (setting [4]), 1.29; with P. aeruginosa (setting [5]), 0.79; with P. aeruginosa (setting [6]), 0.79; in the assay on P. aeruginosa (setting [7]), 1.12. Also, the “FICI, Fractional Inhibitory Concentration Index” value is 1.37 with P. aeruginosa (setting [8]); 0.79 in the assay with P. aeruginosa (setting [9]); 1.23 in assay [1] (K. pneumoniae 1346); 2.29 in assay [1] (K. pneumoniae 1355); 1.29 in assay [1] (K. pneumoniae 2238); 1.23 in assay [1] (K. pneumoniae 2541). The results for the “FICI, Fractional Inhibitory Concentration Index” value in assay [1] (K. pneumoniae 2546) and in assay [1] (K. pneumoniae 2549) were 1.12 and 0.79, respectively.
As for `OCC(S)CS.[Bi]` (centres unmarked) [MB-2B, bismuth-2,3-dimercaptopropanol], the “FICI, Fractional Inhibitory Concentration Index” value came to 1.08 with P. aeruginosa (P. aeruginosa 103, in combination with Aztreonam); 0.61 with P. aeruginosa (setting [2]); 1.11 in the assay with P. aeruginosa (setting [3]); 0.89 in the assay with P. aeruginosa (P. aeruginosa 1381, in combination with Aztreonam); 1.09 with P. aeruginosa (setting [4]); 0.91 in the assay with P. aeruginosa (P. aeruginosa 1384, in combination with Aztreonam). The “FICI, Fractional Inhibitory Concentration Index” value was found to be 0.94 with P. aeruginosa (setting [5]); 0.54 in the assay on P. aeruginosa (P. aeruginosa 1474, in combination with Aztreonam); 0.98 with P. aeruginosa (setting [6]); 0.87 with P. aeruginosa (P. aeruginosa 1479, in combination with Aztreonam); 1.11 with P. aeruginosa (setting [7]); 0.91 with P. aeruginosa (P. aeruginosa 2566, in combination with Aztreonam). In addition, the “FICI, Fractional Inhibitory Concentration Index” value in the assay with P. aeruginosa (setting [8]) was 1.23; in the assay with P. aeruginosa (P. aeruginosa 2568, in combination with Aztreonam) it was 0.87; with P. aeruginosa (setting [9]), 1.11; in assay [1] (K. pneumoniae 1346), 1.19; in assay [1] (K. pneumoniae 1355), 1.19; in assay [1] (K. pneumoniae 2238), 1.64. Besides, the “FICI, Fractional Inhibitory Concentration Index” value in assay [1] (K. pneumoniae 2541) is given as 0.64; in assay [1] (K. pneumoniae 2546), 1.16; in assay [1] (K. pneumoniae 2549), 0.83. Besides, the “MIC (μg/mL) Alone” value in the assay on P. aeruginosa (P. aeruginosa 1381) and with P. aeruginosa (P. aeruginosa 1384) was 4 µg/mL each time. Also, the MIC was 8 µg/mL in the assay with P. aeruginosa (read-out: MIC (μg/mL) Alone, P. aeruginosa 1381); 8 µg/mL in the assay with P. aeruginosa (read-out: MIC (μg/mL) Alone, P. aeruginosa 1384); 4 µg/mL in assay [1] (read-out: MIC (μg/mL) Alone, K. pneumoniae 1346); 4 µg/mL in assay [1] (read-out: MIC (μg/mL) Alone, K. pneumoniae 1355); 4 µg/mL in assay [1] (read-out: MIC (μg/mL) Alone, K. pneumoniae 2238); 8 µg/mL in assay [1] (read-out: MIC (μg/mL) Alone, K. pneumoniae 2541). Further, the MIC in assay [1] (read-out: MIC (μg/mL) Alone, K. pneumoniae 2546) was 8 µg/mL; in assay [1] (read-out: MIC (μg/mL) Alone, K. pneumoniae 2549), 8 µg/mL.
Take `NC[C@@H]1O[C@H](O[C@H]2[C@@H](O)[C@H](O[C@@H]3[C@@H](O)[C@H](N)C[C@H](N)[C@H]3O[C@H]3O[C@H](CN)[C@@H](O)[C@H](O)[C@H]3N)O[C@@H]2CO)[C@H](N)[C@@H](O)[C@@H]1O` [NEO, Neomycin]: the Δ in the assay with S. aureus (setting [10]) was 1.6; with S. aureus (setting [11]) it was 2.5. Besides, the MIC in the assay on S. aureus (MRSA S2446-3, antibiotic alone) worked out at 13.400 µg/mL; with S. aureus (S. aureus ATCC 25923, antibiotic alone), 0.500 µg/mL. The “MIC + BE” value is 8.500 µg/mL in the assay with S. aureus (MRSA S2446-3, with 0.2 μg/ml BisEDT) and 0.200 µg/mL with S. aureus (S. aureus ATCC 25923, with 0.2 μg/ml BisEDT).
`NC[C@@H]1O[C@H](O[C@H]2[C@@H](O)[C@H](O[C@@H]3[C@@H](O)[C@H](N)C[C@H](N)[C@H]3O[C@H]3O[C@H](CO)[C@@H](O)[C@H](O)[C@H]3N)O[C@@H]2CO)[C@H](N)[C@@H](O)[C@@H]1O` [PARO, Paromomycin]: the Δ was 1.8 with S. aureus (setting [10]) and 5.7 in the assay on S. aureus (setting [11]). For the same compound, in the assay on S. aureus (setting [11]), the Synergy entry was “+ (Synergy was also defined conventionally as ≧4-fold decrease in antibiotic concentration)”. Further, the MIC is 1.08 µg/mL with S. aureus (Staphylococcus aureus, ATCC25923, S. aureus ATCC 25923, antibiotic alone, read-out: MIC); 0.188 µg/mL in the assay with S. aureus (Staphylococcus aureus, ATCC25923, S. aureus ATCC 25923, with 0.2 μg/ml BisEDT, read-out: MIC + BE); 335 µg/mL with S. aureus (Staphylococcus aureus, MRSA, MRSA S2446-3, antibiotic alone, read-out: MIC); 183 µg/mL with S. aureus (Staphylococcus aureus, MRSA, MRSA S2446-3, with 0.2 μg/ml BisEDT, read-out: MIC + BE).
